Series [1] is described as follows: Formation of glutathione adducts (GSH reactivity, HPLC-UV). The class given is in vitro ADME. To be noted: 10 mM GSH, 20 micromolar test article, pH 7.4, 37° C. Here is the method: Generation of non-specific thiol adducts can be measured by assaying reactivity of compounds with GSH. Formation of GSH adducts was measured by incubating GSH (10 mM) in 100 mM Phosphate Buffer pH 7.4 with test article at 20 micromolar final concentration. Briefly, 600 microliters of phosphate buffer pH 7.4 was added in a glass vial with 200 microliters of 100 micromolar test article in DMSO. Samples were warmed at 37° C. for 10 minutes and the reaction was initiated by the addition of 200 microliters of 50 mM reduced GSH in phosphate buffer pH 7.4 and incubated at 37° C. At various time points (0.5 min, 5 min, 15 min, 30 min, 60 min, 120 min and 180 min) 50 microliter aliquots were placed into an injection vial equipped with an insert and mixed with 50 microliters of 1% formic acid in 99% Methanol. Vials were loaded onto the HPLC injection tray and each sample was injected onto a C18 column (ACE 3 C18, 4.6×50 mm column) and both the parent and product were monitored by UV absorbance at 254 nm on an Agilent Technologies 1100 series HPLC. Peaks were integrated and the percentage of product present calculated as the percent of the total peak area on the parent and product at 60 minutes.

Series [2] can be described thus: Mouse plasma pharmacokinetics. The class given is in vivo, mouse (CD-1). The following applies: male, CD-1, mouse, mice; for AUC / Cmax: free base; for bioavailability: oral 10 mg/kg vs intravenous 3 mg/kg. Here is the method:
Plasma pharmacokinetic studies were conducted in CD1 mice to compare the plasma exposure following oral and intravenous administration of the free-base form of each compound to mice and to calculate bioavailability. Male CD-1 mice (25-30 g on delivery; Charles River) were used for mouse PK studies. The mice were housed 3 per cage in a room under controlled conditions of temperature ([…]) and humidity (40-70%), with a 12 h dark/light cycle. The animals were acclimated for a minimum of 3 days prior to use and received standard rodent chow (Charles River) and municipal tap water ad libitum. Nine animals were used per study, they were dosed PO or IV and bled from the mandibular vein, 2 to 3 times per animal at the following time points; pre dose, 15 and 30 min, 1, 2, 3, 5, 7 and 24 h (0.1 mL whole blood /time point; composite PK). Blood was collected into microvette K3E tubes ([…]) at RT and then centrifuged at 5,000 RPM for 2 min at 4° C. in order to separate plasma. Isolated plasma (0.015 mL/time point) was pipetted into 96 well plates (Canadian Life Science) which were stored at minus 20° C. until analysis (2 duplicate plates per study).
Concentrations of compound in rodent plasma samples were determined by LC-MS-MS. Two standard curves containing 8 points each were prepared by spiking in methanol or plasma with a solution containing the test article at a defined concentration. The range of final compound concentration in the standard curve was 0 to 1 μg/mL. Three sets of quality control (QC) samples in plasma at low, medium and high concentration within the standard curve range were also prepared. For analysis, the compound was extracted using protein precipitation extraction procedure. Briefly, a three-fold volume of methanol containing an internal standard was added to the plasma and standard curve solution samples and then incubated at 4° C. for 5 minutes. The plates were centrifuged for 30 minutes at 4° C. at 4000 rpm and the resulting supernatant was transferred to a 96-well propylene plates and sealed with cover to avoid sample evaporation. Ten μL aliquots of extracted samples were injected using a 96-well plate autosampler held at 4° C. onto a ACE C18 50×4.6 mm, 3 um HPLC column held at 30° C. Plasma derived parent compound was eluted using the following conditions: pump flow rate was set at 1 mL/min for a five minutes chromatographic method using a 3 min gradient elution from 20% solvent A (0.1% formic acid in water) and 80% solvent B (0.1% Formic Acid in Methanol) to 10% solvent A and 90% solvent B. The method was followed by 1 min column wash at 95% solvent B and 1 min column re-equilibration back to 80% solvent B. Under these conditions the compound was eluted after 1.8 minutes. For LC-MS-MS compound detection, the curtain gas was set at 10, collision gas was set at 8, ion spray voltage was set at 4500, temperature was set at 500, ion source gas 1 was set at 40 and ion source gas 2 was set at 60. Using a positive ionization mode, the MRM transition monitored was set at […]. Under these conditions, standard curves were linear up to 2000 ng/mL, the lower limit of quantification was generally at 10 ng/mL.
The area under the curve (AUCtot and AUClast), the maximum plasma concentration (Cmax) and time (Tmax), and terminal half life (T1/2), clearance and volume of distribution were calculated by regression analysis using Kinetica version 5.0 (Thermo Fisher Scientific) using a Non-Compartmental Extravascular/IV Bolus analysis model.

Series [3] addresses T1, human BTK (Homo sapiens, UniProt Q06187).
T1 construct: purchased Eurofins Pharma Discovery Services UK Limited (contract assay, KinaseProfiler)
In words: BTK kinase inhibition, KinaseProfiler radiometric protein kinase assay (Eurofins). The class given is biochemical. Here is the method: (§1) In vitro potency of selected compound was defined against human BTK, EGFR, and ErbB2 kinases using Kinase Profiler radiometric protein kinase assays performed at Eurofins Pharma Discovery Services UK Limited.
(§2) Each kinase is diluted in buffer and all compounds were prepared to 50x final assay concentration in 100% DMSO. This working stock of the compound was added to the assay well as the first component in the reaction, followed by the remaining components as detailed in the assay protocol listed above. The reaction was initiated by the addition of the MgATP mix. […] (specific activity approx. 500 cpm/pmol, concentration as required) and variable test article concentrations. […] The reaction was stopped by the addition of 3% phosphoric acid solution. 10 μL of the reaction is then spotted onto a P30 filtermat and washed three times for 5 minutes in 75 mM phosphoric acid and once in methanol prior to drying and scintillation counting. In addition positive control wells contain all components of the reaction, except the compound of interest; however, DMSO (at a final concentration of 2%) were included in these wells to control for solvent effects as well as blank wells contain all components of the reaction, with a reference inhibitor replacing the compound of interest. This abolishes kinase activity and establishes the base-line (0% kinase activity remaining). The potency of each compound was reported by estimating the EC50.

For series [4], the target named is T2, human ErbB2 (Homo sapiens, UniProt P04626).
T2 construct: purchased Eurofins Pharma Discovery Services UK Limited (contract assay, KinaseProfiler)
In words: ErbB2 kinase inhibition, KinaseProfiler radiometric protein kinase assay (Eurofins). It is filed as biochemical. The following applies: 40 min room temperature. The protocol:
as §1
as §2, with “In addition positive control wells contain all components of the reaction, except the compound of interest; however, DMSO (at a final concentration of 2%) were included in these wells to control for solvent effects as well as blank wells contain all components of the reaction, with a reference inhibitor replacing the compound of interest.” left out

The mark [5] stands for this setting: intravenous 3 mg/kg, read-out: Intravenous AUC.
[6] abbreviates: oral 10 mg/kg, read-out: Oral AUC.

What is called AUC is concentration integrated over time. What is called bioavailability is dose-corrected exposure relative to a reference, in per cent. A higher bioavailability goes with much systemic uptake. The Cmax is the peak of the concentration-time curve. As usually defined, the IC50 is the concentration that gives 50% inhibition. Low values mean higher potency, high ones lower potency.

Where two headings read alike, the source gives them in different places.

T1 sequence (Q06187 whole entry): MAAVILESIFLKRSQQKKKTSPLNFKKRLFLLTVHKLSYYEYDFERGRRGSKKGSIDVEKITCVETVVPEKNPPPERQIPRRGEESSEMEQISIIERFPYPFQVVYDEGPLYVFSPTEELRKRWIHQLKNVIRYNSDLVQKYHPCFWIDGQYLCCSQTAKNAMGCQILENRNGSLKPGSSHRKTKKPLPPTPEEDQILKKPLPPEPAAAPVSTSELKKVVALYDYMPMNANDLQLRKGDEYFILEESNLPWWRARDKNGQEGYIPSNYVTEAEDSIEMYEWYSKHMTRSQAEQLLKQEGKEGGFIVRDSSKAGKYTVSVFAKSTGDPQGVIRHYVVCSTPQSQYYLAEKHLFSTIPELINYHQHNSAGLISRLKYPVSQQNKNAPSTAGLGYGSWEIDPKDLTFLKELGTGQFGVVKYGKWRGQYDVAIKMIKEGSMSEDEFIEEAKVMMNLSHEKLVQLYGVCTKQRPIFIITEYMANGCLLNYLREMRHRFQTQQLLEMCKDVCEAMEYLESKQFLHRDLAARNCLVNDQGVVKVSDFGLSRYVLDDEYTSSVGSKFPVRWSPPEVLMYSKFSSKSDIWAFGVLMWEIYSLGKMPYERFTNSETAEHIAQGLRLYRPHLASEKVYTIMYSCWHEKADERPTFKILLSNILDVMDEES
T2 sequence (P04626 23-1255): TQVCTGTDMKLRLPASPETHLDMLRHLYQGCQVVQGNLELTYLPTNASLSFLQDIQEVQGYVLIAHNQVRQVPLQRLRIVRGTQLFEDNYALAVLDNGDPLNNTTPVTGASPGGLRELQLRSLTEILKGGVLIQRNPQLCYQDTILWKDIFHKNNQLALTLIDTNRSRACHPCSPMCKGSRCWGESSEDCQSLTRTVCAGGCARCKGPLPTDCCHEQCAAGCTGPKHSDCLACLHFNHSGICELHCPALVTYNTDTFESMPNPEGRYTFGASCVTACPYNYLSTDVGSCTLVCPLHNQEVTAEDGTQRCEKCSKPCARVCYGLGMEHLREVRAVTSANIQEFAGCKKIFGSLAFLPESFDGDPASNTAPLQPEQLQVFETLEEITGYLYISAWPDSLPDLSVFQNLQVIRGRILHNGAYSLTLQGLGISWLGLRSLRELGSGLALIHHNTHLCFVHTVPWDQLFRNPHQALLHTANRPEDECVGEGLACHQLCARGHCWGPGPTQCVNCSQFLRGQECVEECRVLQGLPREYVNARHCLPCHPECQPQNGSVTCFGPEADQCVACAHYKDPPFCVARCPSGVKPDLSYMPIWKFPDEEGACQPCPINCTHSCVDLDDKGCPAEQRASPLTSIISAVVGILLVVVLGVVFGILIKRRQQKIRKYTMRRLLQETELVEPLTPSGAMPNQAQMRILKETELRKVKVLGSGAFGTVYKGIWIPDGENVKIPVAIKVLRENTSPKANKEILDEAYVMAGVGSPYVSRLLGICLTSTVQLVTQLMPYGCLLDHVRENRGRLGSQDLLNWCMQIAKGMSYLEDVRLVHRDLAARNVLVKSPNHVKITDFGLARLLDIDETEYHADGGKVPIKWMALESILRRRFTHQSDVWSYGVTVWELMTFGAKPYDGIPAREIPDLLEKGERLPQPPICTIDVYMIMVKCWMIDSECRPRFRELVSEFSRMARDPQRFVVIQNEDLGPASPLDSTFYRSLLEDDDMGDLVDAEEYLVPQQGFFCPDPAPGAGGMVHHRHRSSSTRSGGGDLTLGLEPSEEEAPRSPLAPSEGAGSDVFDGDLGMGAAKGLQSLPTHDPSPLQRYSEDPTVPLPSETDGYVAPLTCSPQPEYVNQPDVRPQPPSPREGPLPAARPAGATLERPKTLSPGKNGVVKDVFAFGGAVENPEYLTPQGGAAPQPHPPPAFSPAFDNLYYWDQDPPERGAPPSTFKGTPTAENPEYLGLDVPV

As for `CC#CC(=O)N[C@H]1C[C@@H](n2nc(-c3ccc(Oc4ccccc4)cc3)c3c(N)ncnc32)C1` [Compound 1], the “GSH Reactivity GSH Conjugate at 60 minutes” value in series [1] is 7.3 % of total Peaks. The AUC is 841 ng·h/mL in series [2] (setting [5]) and 1450 ng·h/mL in series [2] (setting [6]). The same compound yielded a bioavailability in series [2] of 52%. This compound gave a Cmax in series [2] (oral 10 mg/kg) of 1280 ng/mL. In addition, the values for the IC50 in series [3] and in series [4] were 3 nM and more than 1000 nM, respectively.

Consider `C=CC(=O)N[C@H]1C[C@@H](n2nc(-c3ccc(Oc4ccccc4)cc3)c3c(N)ncnc32)C1` [Compound 2], for which the “GSH Reactivity GSH Conjugate at 60 minutes” value in series [1] was 14.2 % of total Peaks. Also, the AUC was found to be 954 ng·h/mL in series [2] (setting [5]) and 1440 ng·h/mL in series [2] (setting [6]). In addition, in series [2], the bioavailability was found to be 45%. The same compound registered a Cmax in series [2] (oral 10 mg/kg) of 1350 ng/mL. Besides, the IC50 in series [3] is 3 nM; in series [4], 97 nM.

Values taken from patent US20200247808A1, “Heterocyclic Tec-Family Kinase Inhibitors” (GB005, Inc., priority 2015, published 2020).
